Results on one substance are retold here after PMC8443589, “Modelling human liver fibrosis in the context of non-alcoholic steatohepatitis using a microphysiological system” (Communications Biology, 2021).

In assay [1] the test system is liver MPS NASH model (PHH, KC and HSC co-cultures). Nature of the assay: Cue study: pro-fibrotic biomarkers TIMP-1, pro-collagen 1, fibronectin (Fig 5c). The class given is cell-based, human. Conditions: for Fibronectin (Fold change in cytokine production compared to control) / Pro-collagen 1 (Fold change in cytokine production compared to control) / TIMP-1 (Fold change in cytokine production compared to control): fat medium + cue. The source says:
Assessment of gene expression changes was supplemented by assessment of the secretome produced by NASH microtissues in the MPS after exposure to the various cues. Increased pro-inflammatory cytokine secretion is a defining characteristic in NASH patients, so we conducted a Luminex cytokine array covering 42 different biomarkers, cytokines and chemokines secreted into the culture media of the different microtissues at multiple time points. We consistently detected 27 out of the 42 biomarkers and observed that there was differential expression of cytokines and chemokines driven by the different cues applied to the micro-tissue (Fig. 5a, b). The LPS cue and the presence of higher NPC numbers were responsible for driving the largest increase in cytokine and chemokine release, with the largest increases in cytokines measured on day 14 (Fig. 5b). […] Similarly, to the cytokine production, these changes were not further enhanced by combining cues, as all the cue combinations containing TGFβ had the highest expression (Supp. Fig. 17c).
Fig. 5 Systems biology interrogation of liver MPS NASH model to determine physiologically relevant cues that promote soluble biomarker changes to mimic advanced NASH disease state. PHH, KC and HSC co-cultures were cultured in the MPS platform under a variety of conditions for 14 days to test number of NPCs, presence of fat, fructose, cholesterol, LPS and TGFβ for effects on the soluble biomarker profile of the liver MPS NASH model. Expression of biomarkers, cytokines and chemokines were compared, all concentrations were normalised by Z-transformation to allow comparison and shown relative to mean for each marker (white = not detected). a Cytokine expression compared with varying levels of NPCs; b for the high NPC group in the presence of additional cues; c Expression of pro-fibrotic biomarkers with varying NPC content and with additional varying cues in high NPC condition (additional data in Supp. Fig. 17). d Graphical summary of the changes that occur in the NASH model in the presence of Fat and Fat + TGFβ. All data were generated from a minimum of three independent replicate samples per condition.
The MPS LC12 plates consists of 12 individual bioreactors that contain pneumatically driven micro-pumps to recirculate cell culture medium through a collagen-coated scaffold. Cells were cultured using the protocol previously described[20],[21], but briefly, PHH were seeded at a density of 6 × 10^5 viable cells per well on the LC12 plates with each NPC population (KC and/or HSC) at a density of 6 × 10^4 viable cells per well. Each well contained a final volume of 1.6 mL of medium per well and maintained under a flow rate of 1.0 µL/s. Cells were seeded in Williams E medium containing primary hepatocyte thawing and plating supplements (Life Technologies, USA) and cultured initially under downward flow for 8 h before the flow was automatically reversed to upward flow for the next 16 h of culture. Microtissues were then cultured in either HEP-Lean or HEP-Fat medium, both media’s are proprietary to CN Bio Innovations Ltd. The HEP-Fat medium is a derivative of the HEP-LEAN medium and contains a mixture of saturated and unsaturated FFAs, as well as physiologically relevant quantities of insulin and sugars. Complete media changes were performed on all wells every 48–72 h. For certain experiments, the media was supplemented with additional additives from day 4 onwards: 1 ng/ml LPS (lipopolysaccharides from Escherichia coli O111:B4) (Sigma Aldrich, UK), 1 ng/ml recombinant TGF beta 1 protein (Abcam, UK); 500 µM Fructose (Sigma Aldrich, UK), 50 µg/ml Cholesterol (Sigma Aldrich, UK). […]

Assay [2] has the same test system. The assay is described as follows: Cue study: albumin production (ELISA). It counts as cell-based, human.

Regarding “TGFβ: recombinant TGF beta 1 protein (Abcam), 1 ng/ml cue”, in assay [1] (Day 6, high NPC), the “Fibronectin (Fold change in cytokine production compared to control)” value is reported as 1.218, the “Pro-collagen 1 (Fold change in cytokine production compared to control)” value was 1.954 and the “TIMP-1 (Fold change in cytokine production compared to control)” value is recorded as 2.132. Besides, in assay [1] (Day 11, high NPC), the “Fibronectin (Fold change in cytokine production compared to control)” value is 1.379, the “Pro-collagen 1 (Fold change in cytokine production compared to control)” value worked out at 1.672 and the “TIMP-1 (Fold change in cytokine production compared to control)” value is recorded as 1.0946. Further, in assay [1] (Day 14, high NPC), the “Fibronectin (Fold change in cytokine production compared to control)” value is 0.05285, the “Pro-collagen 1 (Fold change in cytokine production compared to control)” value was determined as 0.4105 and the “TIMP-1 (Fold change in cytokine production compared to control)” value is listed as 0.9486. Also, the “pro-collagen 1, fibronectin and TIMP-1 expression” value in assay [1] (cue study) was “most significant increases”. Further, the “Albumin production” value in assay [2] is given as “reduced albumin production”.
